The values below come from patent US8846711B2, “Heterocyclic acrylamides and their use as pharmaceuticals” (Fab Pharma S.A.S., priority 2009, dated 2014).

Converted amounts (≈) assume the structure as drawn. Like-named read-outs stand apart in the source and are kept apart here.

The target of data set [1] is human albumin (HSA) (Homo sapiens (Human), UniProt P02768). The experiment in a line: HSA binding analysis using a chiral HSA column. The data set is classed as in vitro ADME. To be noted: for HSA Binding (%): AB%=[k′/(k′+1)]*100, pH 7.0; for HSA Binding (%) / Conclusion (HSA binding class): chiral HSA column; for k′: capacity factor, k′=(Tr−T0)/T0; for Tr: retention time on chiral HSA column, pH 7.0, 37° C.; for affinity in vitro to human albumin: text summary of Table 7. The text has this: The test system used in this analysis was an HSA chiral column.
The relationship between the retention time (Tr) and percentage of albumin binding (AB %) depended on the dead time (TO) and the capacity factor (k′): AB%=[k′/(k′+1)]*100
HSA binding was classified as follows:
75%≦AB<90%: Moderate binding

Data set [2] relates to S. aureus ATCC 29213. Put plainly: MIC determination using susceptibility method (broth microdilution). Particulars: Staphylococcus aureus. In kind it is cell-based. How it is done:
(§1) Minimum inhibitory concentrations (MICs) were determined by broth microdilution according to CLSI guidelines (CLSI, M100-20^1, M7-A8^2, M27-A3^3). The compounds were tested in the range from […]. Colonies were taken directly from a second-pass culture plate and prepared to a suspension equivalent to the 0.5 McFarland standard using normal saline. […] The panels were incubated at 35° C. for 16 to 20 hours before reading the MIC endpoints. The compounds of Examples 12, 29, 59, 63 and 66-71 were dissolved in DMSO to make the initial solutions of 5120 μg/ml. These solutions were diluted 1:10 in sterile water to a stock solution of 512 μg/ml. The stock solutions were further diluted into the appropriate broth medium for the sequential dilutions used in the broth microdilution panels. S. pneumoniae was tested in Mueller Hinton (MH) broth with 3% lysed horse blood and C. albicans was tested in RPMI-1640 medium. All other organisms were tested in MH broth.
For orientation: Dilution methods test growth across graded concentrations, often in twofold steps.

Data set [3] relates to S. pneumoniae (ATCC 49619). The description is as above. The data set is classed as cell-based. To be noted: Streptococcus pneumoniae. How it is done: as §1
The subject of data set [4] is E. faecalis (ATCC 29212). The description is as above. In kind it is cell-based. Particulars: Enterococcus faecalis. How it is done:
as §1

Data set [5] relates to C. albicans (ATCC 90028). Described as above. The data set is classed as cell-based. To be noted: Candida albicans. How it is done:
as §1

Data set [6] has as its system MRSA (IHMA #510059). The description is as above. The data set is classed as cell-based. To be noted: Staphylococcus aureus, read-out: MIC (μg/ml) MRSA (IHMA #510059). The method, then:
as §1

For data set [7], the system named is MSSA (IHMA #555189). The data set is described as above. Particulars: Staphylococcus aureus, read-out: MIC (μg/ml) MSSA (IHMA #555189). The data set is classed as cell-based. How it is done: as §1
Data set [8] has as its system E. coli (ATCC 25922). The description is as above. In kind it is cell-based. To be noted: Escherichia coli. How it is done:
as §1

[9] abbreviates: ATCC29213, read-out: MIC (μg/ml) S. aureus ATCC 29213.
[10] abbreviates: ATCC49619, read-out: MIC (μg/ml) S. pneumoniae (ATCC 49619).
The mark [11] stands for this setting: ATCC29212, read-out: MIC (μg/ml) E. faecalis (ATCC 29212).
Where [12] appears, read: ATCC90028, read-out: MIC (μg/ml) C. albicans (ATCC 90028).
[13] abbreviates: ATCC25922, read-out: MIC (μg/ml) E. coli (ATCC 25922).
[14] abbreviates: ATCC29213, Broth microdilution, MH broth, read-out: MIC (μg/ml) S. aureus ATCC 29213.
Where [15] appears, read: ATCC49619, Broth microdilution, MH broth with 3% lysed horse blood, read-out: MIC (μg/ml) S. pneumoniae (ATCC 49619).
[16] abbreviates: ATCC29212, Broth microdilution, MH broth, read-out: MIC (μg/ml) E. faecalis (ATCC 29212).
The mark [17] stands for this setting: ATCC90028, Broth microdilution, RPMI-1640 medium, read-out: MIC (μg/ml) C. albicans (ATCC 90028).
The mark [18] stands for this setting: ATCC25922, Broth microdilution, MH broth, read-out: MIC (μg/ml) E. coli (ATCC 25922).

human albumin (HSA), sequence (P02768 25-609): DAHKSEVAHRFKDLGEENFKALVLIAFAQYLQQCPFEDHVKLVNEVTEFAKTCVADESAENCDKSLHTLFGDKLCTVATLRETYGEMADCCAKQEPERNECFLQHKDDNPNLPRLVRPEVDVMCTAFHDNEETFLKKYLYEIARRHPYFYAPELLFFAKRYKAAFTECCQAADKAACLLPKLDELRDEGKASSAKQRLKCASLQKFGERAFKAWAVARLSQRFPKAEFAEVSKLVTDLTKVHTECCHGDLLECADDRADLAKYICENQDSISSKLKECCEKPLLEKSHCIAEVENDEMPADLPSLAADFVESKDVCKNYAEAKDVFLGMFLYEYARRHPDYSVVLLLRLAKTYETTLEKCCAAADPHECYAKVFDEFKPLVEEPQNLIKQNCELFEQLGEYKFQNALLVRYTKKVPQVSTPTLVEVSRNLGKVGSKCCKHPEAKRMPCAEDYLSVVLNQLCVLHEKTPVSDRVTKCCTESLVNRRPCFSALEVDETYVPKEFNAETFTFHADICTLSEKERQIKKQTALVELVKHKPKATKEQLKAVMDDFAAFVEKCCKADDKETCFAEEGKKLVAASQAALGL

On to `CCCCOC1CN(C(=O)/C=C/c2cnc3c(c2)CC2(CCN(C)CC2)C(=O)N3)C1` [Example 63, (E)-6-(3-(3-Butoxyazetidin-1-yl)-3-oxoprop-1-enyl)-1′-methyl-1H-spiro[[1,8]naphthyridine-3,4′-piperidin]-2(4H)-one], for which the “HSA Binding (%)” value in data set [1] is given as 56.3%. Also, the “k′” value in data set [1] amounted to 1.288. For the same molecule, the “Conclusion (HSA binding class)” value in data set [1] is reported as “Low binding (AB<75%: Low binding)”. Besides, the “Tr” value in data set [1] is listed as 1.760 min. Besides, the “affinity in vitro to human albumin” value in data set [1] is on record as “low affinity”. For the same molecule, the MIC in data set [2] (setting [9]) was 1 µg/mL (≈ 2.42 µM); in data set [3] (setting [10]) it was 64 µg/mL (≈ 155 µM); in data set [4] (setting [11]) it was 64 µg/mL (≈ 155 µM); in data set [5] (setting [12]), 128 µg/mL (≈ 310 µM); in data set [6] it was 1 µg/mL (≈ 2.42 µM); in data set [7] it was 1 µg/mL (≈ 2.42 µM). Moreover, in data set [8] (setting [13]), the MIC was found to be 64 µg/mL (≈ 155 µM).
For the molecule `O=C1CCc2cc(/C=C/C(=O)N3CC(c4cc5ccccc5o4)C3)cnc2N1` [Example 59, (E)-6-(3-(3-(Benzofuran-2-yl)azetidin-1-yl)-3-oxoprop-1-enyl)-3,4-dihydro-1,8-naphthyridin-2(1H)-one], the “HSA Binding (%)” value in data set [1] worked out at 82.4%. Also, the “k′” value in data set [1] is 4.678. In addition, the “Conclusion (HSA binding class)” value in data set [1] was “Moderate”. The “Tr” value in data set [1] is given as 4.378 min. The “affinity in vitro to human albumin” value in data set [1] is “moderate affinity”. For the same molecule, the MIC in data set [2] (setting [9]) came to 0.06 µg/mL (≈ 0.161 µM); in data set [3] (setting [10]) it was 32 µg/mL (≈ 85.7 µM); in data set [4] (setting [11]), 64 µg/mL (≈ 171 µM); in data set [5] (setting [12]), 128 µg/mL (≈ 343 µM); in data set [6], 0.06 µg/mL (≈ 0.161 µM); in data set [7], 0.06 µg/mL (≈ 0.161 µM). Moreover, the MIC in data set [8] (setting [13]) was 64 µg/mL (≈ 171 µM).
For `CCCO/N=C(/C)C1CN(C(=O)/C=C/c2cnc3c(c2)CCC(=O)N3)C1` [Example 71, 6-((E)-3-Oxo-3-(3-((Z)-1-(propoxyimino)ethyl)azetidin-1-yl)prop-1-enyl)-3,4-dihydro-1,8-naphthyridin-2(1H)-one], the “HSA Binding (%)” value in data set [1] is listed as 28.8%. Besides, in data set [1], the “k′” value is listed as 0.404. For the same molecule, in data set [1], the “Conclusion (HSA binding class)” value is “Low binding (AB<75%: Low binding)”. Further, the “Tr” value in data set [1] was 1.084 min. For the same molecule, the “affinity in vitro to human albumin” value in data set [1] is on record as “low affinity”. The MIC is 4 µg/mL (≈ 11.2 µM) in data set [2] (setting [14]); 128 µg/mL (≈ 359 µM) in data set [3] (setting [15]); above 128 µg/mL in data set [4] (setting [16]); above 128 µg/mL in data set [5] (setting [17]); 4 µg/mL (≈ 11.2 µM) in data set [6] (Broth microdilution, MH broth); 8 µg/mL (≈ 22.4 µM) in data set [7] (Broth microdilution, MH broth). Moreover, in data set [8] (setting [18]), the MIC is above 128 µg/mL.
For `CN1CCC2(CC1)Cc1cc(/C=C/C(=O)N3CC(OCCc4cccs4)C3)cnc1NC2=O` [Example 66, (E)-1′-Methyl-6-(3-oxo-3-(3-(2-(thiophen-2-yl)ethoxy)azetidin-1-yl)prop-1-en-1-yl)-1H-spiro[[1,8]naphthyridine-3,4′-piperidin]-2(4H)-one], the MIC was found to be 0.25 µg/mL (≈ 0.536 µM) in data set [2] (setting [9]); 64 µg/mL (≈ 137 µM) in data set [3] (setting [10]); 64 µg/mL (≈ 137 µM) in data set [4] (setting [11]); 64 µg/mL (≈ 137 µM) in data set [5] (setting [12]); 0.5 µg/mL (≈ 1.07 µM) in data set [6]; 0.25 µg/mL (≈ 0.536 µM) in data set [7]. Moreover, the MIC in data set [8] (setting [13]) was determined as 64 µg/mL (≈ 137 µM).
As to `CCCO/N=C(\C)C1CN(C(=O)/C=C/c2cnc3c(c2)CCC(=O)N3)C1` [Example 70, 6-((E)-3-Oxo-3-(3-((E)-1-(propoxyimino)ethyl)azetidin-1-yl)prop-1-enyl)-3,4-dihydro-1,8-naphthyridin-2(1H)-one], in data set [1], the “HSA Binding (%)” value came to 36.7%. Also, the “k′” value in data set [1] amounted to 0.580. For the same molecule, in data set [1], the “Conclusion (HSA binding class)” value is recorded as “Low binding (AB<75%: Low binding)”. Moreover, the “Tr” value in data set [1] worked out at 1.219 min. In data set [1], the “affinity in vitro to human albumin” value was “low affinity”. For the same molecule, the MIC is 0.5 µg/mL (≈ 1.4 µM) in data set [2] (setting [14]); above 128 µg/mL in data set [3] (setting [15]); above 128 µg/mL in data set [4] (setting [16]); above 128 µg/mL in data set [5] (setting [17]); 0.5 µg/mL (≈ 1.4 µM) in data set [6] (Broth microdilution, MH broth); 0.5 µg/mL (≈ 1.4 µM) in data set [7] (Broth microdilution, MH broth). The MIC in data set [8] (setting [18]) was above 128 µg/mL.
